The values that follow come from ChEMBL document CHEMBL1143081, “Identification of 1S,2R-milnacipran analogs as potent norepinephrine and serotonin transporter inhibitors” (Bioorg Med Chem Lett, 2008).

The target of data set [1] is Sodium-dependent noradrenaline transporter (Homo sapiens, UniProt P23975).
Data set [2] has as its target Sodium-dependent serotonin transporter (Homo sapiens, UniProt P31645).
Data set [3] deals with Sodium-dependent dopamine transporter (Homo sapiens, UniProt Q01959).
The nature of data set [4]: Lipophilicity, Log D of the compound. The format is physicochemical. The following applies: octanol/water.
Data set [5] in a line: Renal clearance in human. The format is ADME, organism-based, Kidney. As to conditions: in vivo, read-out: CL_renal.
Data set [6] in a line: Partition coefficient, log P of the compound. The format is physicochemical. As to conditions: octanol/water.
A short description of data set [7]: Metabolic stability in human liver microsomes assessed as systemic clearance. It is filed as ADME, Microsome.
Data set [8] can be described thus: Apparent permeability across human Caco-2 cells. It is filed as ADME, cell-based. For orientation: Caco-2 monolayers are a common model of the intestinal barrier.
A short description of data set [9]: Elimination half life in human. The following applies: in vivo. It is filed as ADME, organism-based.
A further data set can be described thus: clinical. The following applies: human, in vivo, po.

Sequence of Sodium-dependent noradrenaline transporter (P23975 whole entry): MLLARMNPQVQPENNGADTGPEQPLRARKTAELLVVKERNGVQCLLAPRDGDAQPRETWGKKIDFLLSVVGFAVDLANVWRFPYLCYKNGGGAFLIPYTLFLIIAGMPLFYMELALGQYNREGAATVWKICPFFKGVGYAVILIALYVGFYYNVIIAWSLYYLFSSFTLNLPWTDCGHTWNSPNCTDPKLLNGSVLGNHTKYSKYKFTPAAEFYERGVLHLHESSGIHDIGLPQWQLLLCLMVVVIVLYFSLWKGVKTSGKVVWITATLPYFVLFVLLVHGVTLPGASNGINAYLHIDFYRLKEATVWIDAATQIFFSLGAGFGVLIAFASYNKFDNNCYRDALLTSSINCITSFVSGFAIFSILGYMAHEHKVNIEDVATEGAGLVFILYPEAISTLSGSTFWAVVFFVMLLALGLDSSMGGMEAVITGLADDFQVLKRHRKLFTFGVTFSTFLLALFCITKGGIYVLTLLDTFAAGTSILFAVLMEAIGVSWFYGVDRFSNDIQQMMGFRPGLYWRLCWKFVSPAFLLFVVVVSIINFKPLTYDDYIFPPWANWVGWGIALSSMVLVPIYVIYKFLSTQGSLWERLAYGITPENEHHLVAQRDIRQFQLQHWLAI
Sequence of Sodium-dependent serotonin transporter (P31645 whole entry): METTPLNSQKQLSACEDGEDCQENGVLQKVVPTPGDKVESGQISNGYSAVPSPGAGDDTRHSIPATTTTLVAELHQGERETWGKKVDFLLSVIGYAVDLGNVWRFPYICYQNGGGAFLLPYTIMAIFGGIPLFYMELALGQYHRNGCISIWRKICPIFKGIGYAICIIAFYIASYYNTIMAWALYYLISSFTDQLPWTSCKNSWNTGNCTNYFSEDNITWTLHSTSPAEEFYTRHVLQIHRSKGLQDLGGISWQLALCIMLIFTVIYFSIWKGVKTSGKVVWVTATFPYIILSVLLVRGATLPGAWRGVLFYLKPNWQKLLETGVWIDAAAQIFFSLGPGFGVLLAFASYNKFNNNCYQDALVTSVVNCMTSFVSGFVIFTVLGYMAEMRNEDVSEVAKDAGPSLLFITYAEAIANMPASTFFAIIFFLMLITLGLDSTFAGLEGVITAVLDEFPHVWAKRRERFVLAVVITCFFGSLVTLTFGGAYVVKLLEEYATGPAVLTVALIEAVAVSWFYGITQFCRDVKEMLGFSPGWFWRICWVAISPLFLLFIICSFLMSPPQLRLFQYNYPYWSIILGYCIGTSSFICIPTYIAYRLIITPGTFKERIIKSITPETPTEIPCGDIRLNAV
Sequence of Sodium-dependent dopamine transporter (Q01959 whole entry): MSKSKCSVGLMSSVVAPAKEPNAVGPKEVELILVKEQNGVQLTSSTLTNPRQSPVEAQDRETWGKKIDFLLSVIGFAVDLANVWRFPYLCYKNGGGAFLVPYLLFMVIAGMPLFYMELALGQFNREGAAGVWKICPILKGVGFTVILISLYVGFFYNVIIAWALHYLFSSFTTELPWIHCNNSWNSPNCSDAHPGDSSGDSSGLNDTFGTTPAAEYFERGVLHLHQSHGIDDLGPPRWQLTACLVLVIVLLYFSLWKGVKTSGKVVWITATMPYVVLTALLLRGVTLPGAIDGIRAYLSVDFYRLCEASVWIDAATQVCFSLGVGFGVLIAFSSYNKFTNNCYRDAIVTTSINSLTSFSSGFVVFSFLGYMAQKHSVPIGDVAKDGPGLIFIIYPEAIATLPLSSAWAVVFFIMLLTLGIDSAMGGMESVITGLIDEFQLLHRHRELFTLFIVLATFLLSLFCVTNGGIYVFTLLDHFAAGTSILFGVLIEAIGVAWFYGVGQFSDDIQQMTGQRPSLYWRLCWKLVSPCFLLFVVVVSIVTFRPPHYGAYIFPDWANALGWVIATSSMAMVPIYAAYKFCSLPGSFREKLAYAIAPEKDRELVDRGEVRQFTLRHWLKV
Description for clinical: Oral bioavailability in human
Description for physchem: Dissociation constant, pKa of the compound

`C=CCN(CCC)C(=O)[C@@]1(c2ccc3c(c2)CCO3)C[C@H]1CN`: the IC50 was 21 nM in [1], 1700 nM in data set [2] and above 10000 nM in data set [3].
The corresponding values for `CCN(CC)C(=O)[C@@]1(c2ccc3occc3c2)C[C@H]1CN` are 47 nM, 280 nM and above 10000 nM.
On to `NCC1C(c2ccccc2)C1(C(=O)N1CCc2ccccc21)c1ccccc1` (racemic), for which the IC50 in [1] is above 10000 nM; in data set [2], 560 nM; in data set [3], 4300 nM.
The corresponding values for `CCN(CC1CC1)C(=O)[C@@]1(c2ccc3c(c2)OCCO3)C[C@H]1CN` are 7.1 nM, 540 nM and above 10000 nM.
For `C#CCN(CC(=C)F)C(=O)[C@@]1(c2ccc3c(c2)OCCO3)C[C@H]1CN` the same measures were 4 nM, 54 nM and above 10000 nM.
The corresponding values for `C#CCN(CC)C(=O)[C@@]1(c2ccc3c(c2)OCCO3)C[C@H]1CN` are 5.9 nM, 125 nM and above 10000 nM.
Regarding `C=CCN(CC=C)C(=O)[C@@]1(c2ccc3c(c2)OCO3)C[C@H]1CN`, the IC50 in data set [1] is 7 nM; in data set [2], 58 nM; in data set [3], above 10000 nM.
In data set [4], `CCN(CC)C(=O)C1(c2ccccc2)CC1CN` (racemic) showed a logD of 0. Also, in data set [5], the CL renal is 350 mL/min.
With `C=C(F)CN(CC)C(=O)[C@@]1(c2ccc3c(c2)OCCO3)C[C@H]1CN`, the IC50 is 5.2 nM in data set [1], 112 nM in [2] and above 10000 nM in [3].
With `CCN(CC)C(=O)[C@@]1(c2ccccc2)C[C@H]1CN` [LEVOMILNACIPRAN], in [4], the logD was -0.2. In data set [6], this molecule returned a logP of 1.6. The CLhep predicted in [7] is 5 mL/min/kg.
In the case of `C=CCN(CC)C(=O)[C@@]1(c2ccc3c(c2)CCO3)C[C@H]1CN`, the IC50 was 18 nM in data set [1], 430 nM in data set [2] and above 10000 nM in data set [3].
For the molecule `CC#CCN(CCC)C(=O)[C@@]1(c2ccc3c(c2)CCO3)C[C@H]1CN`, the 50% inhibitory concentration (IC50) in [1] was 80 nM; in data set [2], 460 nM; in data set [3], above 10000 nM.
For `NC[C@@H]1C[C@@]1(C(=O)C1NCc2ccccc21)c1ccc2c(c1)OCO2` (stereo partly drawn), the IC50 in [1] is 20 nM; in data set [2], 77 nM; in data set [3] it was 3600 nM.
The corresponding values for `CCN(CC)C(=O)[C@@]1(c2ccc3c(c2)CCC3)C[C@H]1CN` are 160 nM, 480 nM and above 10000 nM.
In the case of `C#CCN(CC=C)C(=O)[C@@]1(c2ccc3c(c2)CCO3)C[C@H]1CN`, the IC50 was 14 nM in [1], 130 nM in data set [2] and above 10000 nM in data set [3].
In the case of `C#CCN(C(=O)[C@@]1(c2ccc3c(c2)OCCO3)C[C@H]1CN)C1CC1`, the figures for the IC50 in [1], in data set [2] and in [3] were 4.4 nM, 160 nM and above 10000 nM, respectively.
With `C=CCN(CC)C(=O)C1(c2ccccc2)C(CN)C1c1ccccc1` (racemic), the IC50 in data set [1] was above 10000 nM; in data set [2], 3400 nM; in data set [3], above 10000 nM.
Turning to `CC1(C)C(CN)C1(C(=O)N1CCc2ccccc21)c1ccccc1` (racemic), the 50% inhibitory concentration (IC50) in data set [1], in data set [2] and in data set [3] was above 10000 nM in each case.
Regarding `C=CCN(CC=C)C(=O)[C@@]1(c2ccc3c(c2)OCCO3)C[C@H]1CN`, the CLhep predicted in [7] was 8.1 mL/min/kg. The IC50 in data set [1] was 3.5 nM; in data set [2], 32 nM; in data set [3], 6300 nM.
As to `C=CCN(CC)C(=O)[C@@]1(c2ccc3c(c2)OCCO3)C[C@H]1CN`, in [7], the CLhep predicted was 8.8 mL/min/kg. In addition, the IC50 was 2.9 nM in [1], 65 nM in data set [2] and above 10000 nM in [3].
For the molecule `CCN(CC)C(=O)C1(c2ccccc2)C(CN)C1(C)C` (racemic), the results for the IC50 in data set [1], in [2] and in data set [3] were above 10000 nM, above 10000 nM and 4500 nM, respectively.
Turning to `C=CCN(CC=C)C(=O)[C@@]1(c2ccc3c(c2)CCO3)C[C@H]1CN`, the IC50 is 4.5 nM in data set [1], 270 nM in [2] and above 10000 nM in data set [3].
The corresponding values for `NC[C@@H]1C[C@@]1(C(=O)N1CCc2sccc2C1)c1ccc2c(c1)OCO2` are 9.4 nM, 14 nM and above 10000 nM.
For the molecule `C#CCN(CC#C)C(=O)[C@@]1(c2ccc3c(c2)OCO3)C[C@H]1CN`, the IC50 in [1] turned out to be 7.6 nM; in [2] it was 49 nM; in data set [3], 4300 nM.
Consider `C#CCN(CC#C)C(=O)[C@@]1(c2ccc3c(c2)CCO3)C[C@H]1CN`, for which the figures for the IC50 in data set [1], in [2] and in data set [3] were 17 nM, 145 nM and above 10000 nM, respectively.
For `CCN(CC)C(=O)[C@@]1(c2ccc3c(c2)OCCO3)C[C@H]1CN`, in data set [7], the CLhep predicted is 4.4 mL/min/kg. The IC50 in [1] was 6.3 nM; in [2], 140 nM; in data set [3], above 10000 nM.
Take `CCN(CC)C(=O)[C@@]1(c2ccc3c(c2)OCO3)C[C@H]1CN`: in data set [4], the logD worked out at 0.4. In data set [6], this molecule displayed a logP of 1.7. Further, the CLhep predicted in data set [7] was 7.9 mL/min/kg. In addition, in data set [8], the Papp was found to be 4.7 ×10⁻⁶ cm/s. The results for the IC50 in [1], in data set [2] and in data set [3] were 12 nM, 480 nM and above 10000 nM, respectively. Besides, in “physchem”, the pKa turned out to be 9.6.
Regarding `NC[C@@H]1C[C@@]1(C(=O)N1CCOc2ccccc21)c1ccc2c(c1)OCO2`, the IC50 in [1] stood at 5.8 nM; in [2] it was 320 nM; in data set [3], 5100 nM.
As for `NC[C@@H]1C[C@@]1(C(=O)N1CCc2ccccc21)c1ccc2c(c1)OCO2`, the IC50 in data set [1] came to 4.2 nM; in [2], 28 nM; in data set [3], 640 nM.
For `CCN(CC)C(=O)[C@@]1(c2ccc3c(c2)CCO3)C[C@H]1CN` the same measures were 160 nM, 2100 nM and above 10000 nM.
With `C=CCN(CC#CC)C(=O)[C@@]1(c2ccc3c(c2)CCO3)C[C@H]1CN`, the values for the IC50 in data set [1], in [2] and in data set [3] were 40 nM, 210 nM and above 10000 nM, respectively.
For the molecule `CCN(CC)C(=O)C1(c2ccccc2)CC1(C)CN` (racemic), the IC50 is above 10000 nM in [1], 6900 nM in data set [2] and above 10000 nM in [3].
Take `C#CCN(CC1CC1)C(=O)[C@@]1(c2ccc3c(c2)OCCO3)C[C@H]1CN`: the IC50 in data set [1] was 3.9 nM; in data set [2] it was 210 nM; in data set [3], above 10000 nM.
For `C=CCN(CC)C(=O)[C@@]1(c2ccc3c(c2)OCO3)C[C@H]1CN` the same measures were 7.1 nM, 150 nM and above 10000 nM.
In the case of `C=CCN(CC#CC)C(=O)[C@@]1(c2ccc3c(c2)OCO3)C[C@H]1CN`, the IC50 in [1] is 15 nM; in data set [2] it was 64 nM; in data set [3] it was above 10000 nM.
Turning to `CCN(CC)C(=O)[C@@]1(c2ccc3sccc3c2)C[C@H]1CN`, the IC50 in [1] is 47 nM; in data set [2], 1100 nM; in data set [3], 1300 nM.
On to `CCN(CC)C(=O)C1(c2ccccc2)C(CN)C1c1ccccc1` (racemic), for which the results for the IC50 in data set [1], in data set [2] and in data set [3] were above 10000 nM, 6400 nM and above 10000 nM, respectively.
Turning to `C=CCN(CC(=C)F)C(=O)[C@@]1(c2ccc3c(c2)OCCO3)C[C@H]1CN`, the IC50 in data set [1] amounted to 3.2 nM; in [2], 39 nM; in data set [3], 2900 nM.
In the case of `C=C(F)CN(C)C(=O)[C@@]1(c2ccc3c(c2)OCCO3)C[C@H]1CN`, the IC50 was 8.1 nM in data set [1], 100 nM in data set [2] and above 10000 nM in data set [3].
As to `C#CCN(CC#C)C(=O)[C@@]1(c2ccc3c(c2)OCCO3)C[C@H]1CN`, in data set [7], the CLhep predicted is 7.9 mL/min/kg. Further, the Papp in data set [8] came out at 5.2 ×10⁻⁶ cm/s. Besides, the IC50 was 1.7 nM in [1], 25 nM in data set [2] and above 10000 nM in [3].
Consider `NC[C@@H]1C[C@@]1(C(=O)N1CCc2ccccc2C1)c1ccc2c(c1)OCO2`, for which the IC50 in data set [1] is 6.5 nM; in [2], 26 nM; in [3] it was 3600 nM.
As to `C=CCN(CC)C(=O)C1(c2ccccc2)C(CN)C1(C)C` (racemic), the IC50 in [1] was 6400 nM; in data set [2] it was above 10000 nM; in data set [3] it was above 10000 nM.
Take `CNCC[C@@H](Oc1ccccc1C)c1ccccc1` [ATOMOXETINE]: the log distribution coefficient (logD) in data set [4] is 0.8. In data set [9], this molecule showed a half-life of 8 h. Further, the logP in data set [6] came out at 3.5. In addition, in data set [7], the CLhep predicted was 14.3 mL/min/kg. The bioavailability in the data set “clinical” came to 85%.
Take `CCN(CC)C(=O)[C@@]1(c2cccc(F)c2)C[C@H]1CN`: the IC50 in [1] is 73 nM; in data set [2], 370 nM; in data set [3] it was above 10000 nM.

As a reminder, the IC50 is the concentration that inhibits the measured activity by half. As a reminder, the logD is the decadic logarithm of the distribution of all forms, ionised or not, between an organic phase and buffer at a given pH. Read a high logD as a more lipophilic compound. As a reminder, the logP is a log measure of how a compound divides between an organic and an aqueous phase. The Papp is the rate of passage across a membrane or cell layer, normalised by area and donor concentration. The pKa is the negative logarithm of the acid dissociation constant. A higher pKa goes with a group that holds its proton tightly. By half-life is commonly meant the time in which the quantity being followed falls by half. Low values mean rapid decline, high ones slow decline. Usually bioavailability stands for dose-corrected exposure relative to a reference, in per cent.
